Source: patent US7544709B2, “Derivatives of andrimide and moiramide B having antibacterial properties” (Bayer Healthcare AG, priority 2001, dated 2009)
Values after ≈ are worked out from the molar mass of the structure shown. Read-outs that look alike come from different tables or passages of the source.

Legend:
[1] = system: Haemophilus influenzae Spain 7; test: Determination of minimum inhibitory concentration (MIC), liquid dilution test; assay type: cell-based; details: SPAIN7, BHI broth plus 20% bovine serum, 10 μg/ml hemin and 1% Isovitale, 37° C., 18-24 hours, 8-10% CO2
Procedure: (§1) Determination of Minimum Inhibitory Concentration (MIC):
(§2) The MIC is determined in the liquid dilution test. Overnight cultures of the test organisms are diluted to a cell count of 10^5 organisms per ml in Isosensitest medium (manufacturer: Difco) and are incubated with dilutions of the test substances (1:2 dilution states). Exceptions are the tests with S. pneumoniae G9A, which are conducted in BHI broth (Difco) plus 20% bovine serum, and with H. influenzae, which are conducted in BHI broth (Difco) plus 20% bovine serum, 10 μg/ml hemin and 1% Isovitale (Becton Dickinson).
(§3) The cultures are incubated at 37° C. for 18-24 hours; S. pneumoniae and H. influenzae in the presence of 8-10% CO2.
(§4) The lowest concentration of each substance at which there was no longer any visible bacterial growth is defined as the MIC. The MICs in μmol/l of some compounds according to the invention against a series of test organisms are listed by way of example in the table below.

[2] = system: Staphylococcus aureus 133; test: as above; assay type: cell-based
Procedure: as §1, §2, §3, §4

[3] = described in the literature; cited from earlier work
[4] = Staphylococcus aureus, 133, liquid dilution test, Isosensitest medium, 10^5 organisms per ml, 37° C., 18-24 hours, lowest concentration with no visible growth, read-out: MIC Staphylococcus aureus 133

MIC [1] [µM]	MIC [2, 4] [µM]	Compound	MIC ([2]; Staphylococcus aureus, 133, read-out: MIC Staphylococcus aureus 133) [µM]	antibacterial activity [3]
62.5	3.9 (≈ 1.92 µg/mL)	CC(C)[C@H](NC(=O)C[C@H](NC(=O)NCc1ccccc1)c1ccccc1)C(=O)[C@@H]1C(=O)NC(=O)[C@H]1C [Example 2, (S)-3-(3-Benzylureido)-N-{(S)-2-methyl-1-[1-((3R,4S)-4-methyl-2,5-dioxopyrrolidin-3-yl)-methanoyl]propyl}-3-phenylpropionamide]	–	–
–	62.5 (≈ 29.9 µg/mL)	CC(C)[C@H](NC(=O)C[C@H](NC(=O)Nc1ccccc1)c1ccccc1)C(=O)[C@@H]1C(=O)NC(=O)[C@H]1C [Example 5, (S)-N-{(S)-2-Methyl-1-[1-((3R,4S)-4-methyl-2,5-dioxopyrrolidin-3-yl)-methanoyl]-propyl}-3-phenyl-3-(3-phenylureido)propionamide]	–	–
62.5	62.5 (≈ 31.8 µg/mL)	COc1ccc(NC(=O)N[C@@H](CC(=O)N[C@H](C(=O)[C@@H]2C(=O)NC(=O)[C@H]2C)C(C)C)c2ccccc2)cc1 [Example 6, (S)-3-[3-(4-Methoxyphenyl)ureido]-N-{(S)-2-methyl-1-[1-((3R,4S)-4-methyl-2,5-dioxopyrrolidin-3-yl)methanoyl]propyl}-3-phenylpropionamide]	–	–
31.3	15.6 (≈ 7.68 µg/mL)	CC(C)[C@H](NC(=O)C[C@H](NC(=O)N(C)c1ccccc1)c1ccccc1)C(=O)[C@@H]1C(=O)NC(=O)[C@H]1C [Example 7, (S)-N-{(S)-2-Methyl-1-[1-((3R,4S)-4-methyl-2,5-dioxopyrrolidin-3-yl)methanoyl]-propyl}-3-(3-methyl-3-phenylureido)-3-phenylpropionamide]	–	–
62.5	7.8 (≈ 4.12 µg/mL)	CC(C)[C@H](NC(=O)CC(NC(=O)Nc1cccc2ccccc12)c1ccccc1)C(=O)[C@@H]1C(=O)NC(=O)[C@H]1C (stereo partly drawn) [Example 9, N-((1s)-2-Methyl-1-{[(3R,4S)-4-methyl-2,5-dioxo-3-pyrrolidinyl]carbonyl}propyl)-3-{[(1-naphthylamino)carbonyl]amino}-3-phenylpropionamide]	–	–
125	7.8 (≈ 4.53 µg/mL)	CC(C)[C@H](NC(=O)CC(NC(=O)Nc1ccc(Cl)c(C(F)(F)F)c1)c1ccccc1)C(=O)[C@@H]1C(=O)NC(=O)[C@H]1C (stereo partly shown) [Example 10]	–	–
125	31.3 (≈ 15.2 µg/mL)	C[C@@H]1C(=O)NC(=O)[C@H]1C(=O)C(NC(=O)C[C@H](NC(=O)OC(C)(C)C)c1ccccc1)C1CCCC1 (stereo partly shown) [Example 33]	–	–
–	–	CC(C)[C@H](NC(=O)CC(NC(=O)Oc1ccc(-c2ccccc2)cc1)c1ccccc1)C(=O)[C@@H]1C(=O)NC(=O)[C@H]1C (stereo partly shown) [Example 35]	0.98 (≈ 0.545 µg/mL)	–
125	7.8 (≈ 4.1 µg/mL)	CC(C)[C@H](NC(=O)C[C@H](NS(=O)(=O)/C=C/c1ccccc1)c1ccccc1)C(=O)[C@@H]1C(=O)NC(=O)[C@H]1C [Example 47, (3S)-N-((1S)-2-Methyl-1-{[(3R,4S)-4-methyl-2,5-dioxo-3-pyrrolidinyl]carbonyl}-propyl)-3-phenyl-3-({[(E)-2-phenylethenyl]sulfonyl}amino)propionamide]	–	–
–	–	C/C=C/C=C/C=C/C(=O)N[C@@H](CC(=O)N[C@H](C(=O)[C@@H]1C(=O)NC(=O)[C@H]1C)C(C)C)c1ccccc1 [andrimid]	–	having antibacterial activity
–	–	C/C=C/C=C/C(=O)N[C@@H](CC(=O)N[C@H](C(=O)[C@@H]1C(=O)NC(=O)[C@H]1C)C(C)C)c1ccccc1 [moiramide B]	–	having antibacterial activity
–	–	C/C=C/C=C/C=C/C(=O)N[C@@H](CC(=O)N[C@H](C(=O)[C@@]1(O)C(=O)NC(=O)[C@H]1C)C(C)C)c1ccccc1 [moiramide C]	–	inactive
